Here are results for eight compounds from ChEMBL document CHEMBL4251694 (ACS Med Chem Lett, 2018).

The term EC50 denotes the concentration needed to bring the measured effect to its halfway point. In general, CC50 refers to the concentration giving 50% cytotoxicity. Usually Kd stands for the constant that tells how readily two partners part at equilibrium. High values mean weaker binding, low ones tighter binding. What is called IC50 is the midpoint of a concentration-inhibition curve.

Activity calls are given as the source filed them. The rule behind the calls is not given here.

For series [1], the system named is Influenza A virus. Briefly: Antiviral activity against Influenza A virus A/Udorn/72 H3N2 infected in MDCK cells assessed as reduction in virus-induced cytopathic effect by crystal violet staining based light-microscopic analysis. The class given is functional, organism-based, Influenza A virus (A/udorn/1972(H3N2)). (In general: Damage to the host cells serves as the signal in cytopathic effect assays.)

For series [2], the system named is Influenza A virus. Briefly: Antiviral activity against Influenza A virus A/WSN/33 H1N1 infected in MDCK cells assessed as reduction in virus-induced cytopathic effect by crystal violet staining based light-microscopic analysis. The class given is functional, organism-based. To be noted: A/WSN/1933(H1N1).
Series [3] in a line: Cytotoxicity against MDCK cells after 72 hrs by crystal violet staining based spectrophotometric method. The format is cell-based, Canis lupus familiaris. To be noted: dog.
In series [4] the test system is Influenza A virus. In words: Antiviral activity against Influenza A virus A/Udorn/72 H3N2 infected in MDCK cells assessed as reduction in plaque formation by crystal violet staining based assay. The format is functional, organism-based. The conditions noted are these: Influenza A virus (A/udorn/1972(H3N2)).
Series [5] concerns Influenza A virus. Briefly: Antiviral activity against Influenza A virus (A/Hong Kong/68(H3N2)) infected in MDCK cells assessed as reduction in virus-induced cytopathic effect by crystal violet staining based light-microscopic analysis. The format is functional, organism-based.
Series [6] addresses Matrix protein 2 (Influenza A virus (A/Udorn/307/1972(H3N2)), UniProt P0DOF8). Briefly: Binding affinity to Influenza A virus A/Udorn/72 wild-type M2 proton channel by isothermal calorimetric titration. The arrangement: species or system Influenza A virus (A/udorn/1972(H3N2)). (Isothermal titration calorimetry measures the heat released or taken up as one component is titrated into another.)

Series [7] concerns Influenza A virus. Briefly: Antiviral activity against Influenza A virus A/Udorn/72 H3N2 infected in MDCK cells assessed as reduction in plaque size by crystal violet staining based assay. The class given is functional, organism-based. To be noted: Influenza A virus (A/udorn/1972(H3N2)).
Series [8] addresses Matrix protein 2 (Influenza A virus (A/Udorn/307/1972(H3N2)), UniProt P0DOF8). In words: Binding affinity to Influenza A virus A/Udorn/72 wild-type M2 proton channel expressed in Xenopus laevis oocytes at pH 5.5 by two-electrode voltage clamp assay. The class given is cell-based, Influenza A virus (A/udorn/1972(H3N2)). (In two-electrode clamp one electrode senses voltage and the other passes current.)

For series [9] the target is unchanged. Briefly: Inhibition of Influenza A virus A/Udorn/72 wild-type M2 proton channel expressed in Xenopus laevis oocytes assessed as blockade of inward currents at pH 5.5 after 2 mins by two-electrode voltage clamp assay. The class given is cell-based, Influenza A virus (A/udorn/1972(H3N2)).
The target is the same in series [10]. Briefly: Inhibition of Influenza A virus A/Udorn/72 wild-type M2 proton channel expressed in Xenopus laevis oocytes assessed as blockade of inward currents at pH 5.5 after 5 mins by two-electrode voltage clamp assay. The format is cell-based, Influenza A virus (A/udorn/1972(H3N2)).

Chain of Matrix protein 2 (Influenza A virus (A/Udorn/307/1972(H3N2)), UniProt P0DOF8) (P0DOF8 whole entry): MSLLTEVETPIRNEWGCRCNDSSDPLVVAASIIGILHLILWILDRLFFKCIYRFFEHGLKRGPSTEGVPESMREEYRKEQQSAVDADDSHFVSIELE

On to `C[C@H](N)C12CC3CC(CC(C3)C1)C2`, for which the EC50 was 0.06 µM in series [1] and > 100 µM in [2]. Further, the CC50 at 72 h in series [3] was > 100 µM. Moreover, the outcome in [4] was Active.
On to `CCOC(=O)C1=C[C@@H](OC(CC)CC)[C@H](NC(C)=O)[C@@H](N)C1` [OSELTAMIVIR], for which the concentration for a half-maximal effect (EC50) is 0.002 µM in series [5], 0.001 µM in series [1] and 0.03 µM in series [2]. Moreover, the CC50 at 72 h in [3] was > 100 µM.
With `CCCC(N)(CCC)C12CC3CC(CC(C3)C1)C2`, the Kd stood at 3.43 µM in [6] and 88 µM in series [8]. For the same compound, the values for the concentration for a half-maximal effect (EC50) in series [5], in series [1] and in series [2] were 0.45 µM, 1.07 µM and > 100 µM, respectively. This compound also registered a CC50 at 72 h in series [3] of 57.3 µM. Besides, in series [4], the result was inactive. The outcome in series [7] was Active.
In turn, `CCC(N)(CC)C12CC3CC(CC(C3)C1)C2` showed a Kd in series [6] of 4.59 µM. In addition, the EC50 is 0.46 µM in [5], 0.41 µM in [1] and > 100 µM in series [2]. Also, the CC50 at 72 h in series [3] was > 100 µM. In addition, the result in [4] was Active. For the same compound, the results for the IC50 in series [9] and in [10] were 24.3 µM and 13.2 µM, respectively.
`CC(N)C12CC3CC(CC(C3)C1)C2` (stereo unspecified) [RIMANTADINE]: the concentration giving a half-maximal response (EC50) is 0.05 µM in series [5], 0.09 µM in series [1] and > 100 µM in [2]. Moreover, the CC50 at 72 h in series [3] was > 100 µM. Besides, the result in series [4] was Active.
With `CC(C)(N)C12CC3CC(CC(C3)C1)C2`, the results for the Kd in [6] and in series [8] were 0.13 µM and 13 µM, respectively. For the same compound, the EC50 in series [5] is 0.012 µM; in series [1], 0.01 µM; in [2], > 100 µM. In addition, the CC50 at 72 h in [3] is > 100 µM. For the same compound, in series [4], the result was Active. For the same compound, the IC50 was found to be 9.3 µM in series [9] and 4 µM in series [10].
`C[C@@H](N)C12CC3CC(CC(C3)C1)C2`: the EC50 in [1] was 0.05 µM; in series [2], > 100 µM. Besides, the CC50 at 72 h in series [3] is > 100 µM. The result in series [4] was Active.
With `NC12CC3CC(CC(C3)C1)C2` [AMANTADINE], the EC50 is 0.78 µM in series [1] and > 100 µM in series [2]. Further, the CC50 at 72 h in [3] is > 100 µM. For the same compound, in [4], the result was Active.
